The values that follow come from PMC8158775, “Structure–Activity Relationship Assessment of Sophorolipid Ester Derivatives against Model Bacteria Strains” (Molecules, 2021).

As usually defined, the MIC is the lowest concentration found to suppress growth.

Series [1] deals with Listeria innocua (ATCC 33090). The series is described as follows: Minimum inhibitory concentration (microdilution). In kind it is cell-based. Particulars: read-out: MIC L. innocua. The protocol: (§1) Bacteria strains Staphylococcus aureus (ATCC 33807), Bacillus cereus (ATCC 4342), Bacillus subtilis (ATCC 21332), Listeria innocua (ATCC 33090), and Escherichia coli (ATCC 53323) were provided by Ravi Kane’s lab at Rensselaer Polytechnic Institute. Mueller–Hinton broth (MHB) was used for the Staphylococcus aureus culture, while tryptic soy broth (TSB) was used for the other strains. All strains were grown to the stationary phase for 24 h at 37 °C with agitation at 220 rpm. After overnight incubation, cultures were diluted to 5 × 10^6 CFU/mL prior to use.
(§2) The minimum inhibitory concentration (MIC) was determined using the microdilution technique. Modified sophorolipid (SL) derivatives were dissolved in DMSO to make 2 M stock solutions. A dilution series was made by diluting the stock solution to a range of concentrations from 200 µM to 4 µM and a final volume of 100 μL in 10% DMSO/phosphate-buffered saline (PBS) in each well of a 96-well plate. Bacterial inocula (100 μL, 5 × 10^6 CFU/mL) were added to each well, and the final DMSO concentration was 5%. Wells containing the same volumes of DMSO/PBS buffer and culture medium, with and without bacteria, were used as positive and negative controls, respectively. Streptomycin was used for comparison. The plate was then incubated with shaking for 16–30 h at 37 °C to ensure that cultures had reached stationary phase growth and the absorbance readings were recorded at a wavelength of 600 nm using an absorbance microplate reader. Absorbance data from 16–30 h were used to calculate the percent inhibition for each test condition. MIC was recorded as the lowest concentration of drug that inhibited more than 90% of bacterial growth. All assays were carried out in triplicate.
(In general: Broth dilution looks for growth in wells or tubes with falling amounts of substance.)

Series [2] has as its system Escherichia coli (ATCC 53323). In words: Minimum inhibitory concentration (microdilution). In kind it is cell-based. Particulars: read-out: MIC E. coli. How it is done:
as §1, §2

Series [3] has as its system Bacillus subtilis (ATCC 21332). In words: Minimum inhibitory concentration (microdilution). It is filed as cell-based. Particulars: read-out: MIC B. subtilis. How it is done: as §1, §2
Series [4] deals with Bacillus cereus (ATCC 4342). The series is described as follows: Minimum inhibitory concentration (microdilution). It is filed as cell-based. The settings on record: read-out: MIC B. cereus. The protocol:
as §1, §2

In series [5] the test system is Staphylococcus aureus (ATCC 33807). The series is described as follows: Minimum inhibitory concentration (microdilution). In kind it is cell-based. The settings on record: read-out: MIC S. aureus. The protocol: as §1, §2
In series [6] the test system is M1 activated macrophages (AMOs) from Raw 254.7 murine macrophages. In words: In vitro cytotoxicity study. In kind it is cell-based. Particulars: for cytotoxicity ranking: comparison within SL series. The text has this:
A potential antimicrobial candidate must selectively kill pathogen cells without harming the host mammalian cells. To test the ability of SLs to effectively discriminate between bacteria and mammalian cells, a cytotoxicity assay was previously reported by our team. […] The therapeutic index (TI) is a parameter commonly used to determine potential drug selectivity. […] Generally, membrane-active agents are not considered for systemic administration directly, because of relatively low selectivity. Thus, designing suitable formulations and selecting suitable dose ranges are important in drug development.

A further series has as its system B. cereus cell membrane. In words: Dye leakage / membrane depolarization assay with diS-C3(5). It is filed as cell-based, Bacillus cereus. The settings on record: 40 μg/mL (58–60 μM), t = 60 min, diS-C3(5) probe; listed as LSL. How it is done:
To probe the role of LSL and the SL-esters as membrane-active agents, dye leakage experiments were carried out. Polymyxin B, a well-known membrane-active agent, was used as a positive control. Polymyxin B is a cyclic peptide with long, hydrophobic tails that can insert into cell membranes causing cell lysis. First, time-course membrane-depolarizing studies were conducted (Figure 3A). […] Upon addition of B. cereus cells at 2 min, a rapid decay in fluorescence intensity was observed due to self-quenching caused by migration of the probe into membranes. Subsequent addition of the SL-esters at 4 min led to a sharp increase in the fluorescence signal, thus indicating enhanced permeability of the cell membrane driven by the presence of the SL derivative.
The disruption of bacterial membranes after treatment with LSL and SL-ester derivatives was tested using a fluorescence probe, diS-C3(5), which can be quenched by the electrically polarized membrane. B. Cereus grown to mid-log phase was adjusted to 2.5 × 10^6 CFU/mL in fresh MHB. […] Fluorescence data were recorded at 670 nm with excitation at 622 nm on Molecular Devices SPECTRAmax Plus 384 UV-VIS High Throughput Microplate Spectrophotometer and normalized against the negative control.

[7] abbreviates: Listeria innocua, ATCC33090, incubation time 30 h, lowest concentration inhibiting more than 90% of bacterial growth.
The mark [8] stands for this setting: Escherichia coli, ATCC53323, incubation time 16 h, lowest concentration inhibiting more than 90% of bacterial growth.
[9] abbreviates: Bacillus subtilis, ATCC21332, incubation time 16 h, lowest concentration inhibiting more than 90% of bacterial growth.
Setting [10] is: Bacillus cereus, ATCC4342, incubation time 16 h, lowest concentration inhibiting more than 90% of bacterial growth.
The mark [11] stands for this setting: Staphylococcus aureus, ATCC33807, incubation time 16 h, lowest concentration inhibiting more than 90% of bacterial growth.
[12] abbreviates: incubation time 16 h, lowest concentration inhibiting more than 90% of bacterial growth.
[13] abbreviates: incubation time 30 h, lowest concentration inhibiting more than 90% of bacterial growth.
The mark [14] stands for this setting: 16 h incubation, procedure of ref 17.

In brackets after ≈: the same amount, converted by molar mass. Entries after “also recorded” stand apart in the source; their conditions may differ. Read-outs that look alike come from different tables or passages of the source.

As to `CCOC(=O)CCCCCCC/C=C\CCCCCCC(C)OC1OC(COC(C)=O)C(O)C(O)C1OC1OC(COC(C)=O)C(O)C(O)C1O` (stereo not shown) [ESL-(6′Ac, 6″Ac)], the MIC in series [1] (setting [7]) was over 200 µM; in series [2] (setting [8]) it was over 200 µM; in series [3] (setting [9]), over 200 µM; in series [4] (setting [10]), 12 µM (≈ 8.82 µg/mL).
In the case of `CCOC(=O)CCCCCCC/C=C\CCCCCCC(C)OC1OC(COC(C)=O)C(O)C(O)C1OC1OC(CO)C(O)C(O)C1O` (stereo not shown) [ESL-(6′Ac, 6″OH)], the MIC in series [1] (setting [7]) was 25 µM (≈ 17.3 µg/mL); in series [2] (setting [8]), over 200 µM; in series [3] (setting [9]) it was 25 µM (≈ 17.3 µg/mL); in series [4] (setting [10]), 25 µM (≈ 17.3 µg/mL).
On to `CCOC(=O)CCCCCCC/C=C\CCCCCCC(C)OC1OC(CO)C(O)C(O)C1OC1OC(COC(C)=O)C(O)C(O)C1O` (stereo not shown) [ESL-(6′OH, 6″Ac)], for which the MIC in series [1] (setting [7]) was 25 µM (≈ 17.3 µg/mL); in series [2] (setting [8]), over 200 µM; in series [3] (setting [9]) it was 25 µM (≈ 17.3 µg/mL); in series [4] (setting [10]) it was 25 µM (≈ 17.3 µg/mL).
On to `CC(=O)OCC1OC2OC(C)CCCCCC/C=C\CCCCCCCC(=O)OC3C(COC(C)=O)OC(OC2C(O)C1O)C(O)C3O` (stereo not shown) [Lactonic SL, reference compound], for which the MIC in series [5] (setting [11]) was 25 µM (≈ 17.2 µg/mL); in series [1] (setting [7]) it was 50 µM (≈ 34.4 µg/mL); in series [2] (setting [8]), over 200 µM; in series [2] (setting [12]) it was over 200 µM; in series [3] (setting [9]), 12 µM (≈ 8.27 µg/mL); in series [4] (setting [10]), 25 µM (≈ 17.2 µg/mL). The “reduction in cell viability” value in series [6] (at 50 µM, procedure of ref 17) was “roughly 50%”. The cytotoxicity ranking result in series [6] is “highest cytotoxicity”. Moreover, in the series with B. cereus cell membrane, the “ability to enhance cell membrane permeability (endpoint fluorescence)” value is given as “non-significant ability to enhance cell membrane permeability; also recorded: failed to enhance membrane permeability”.
Take `CCCCOC(=O)CCCCCCC/C=C\CCCCCCC(C)OC1OC(CO)C(O)C(O)C1OC1OC(CO)C(O)C(O)C1O` (stereo not shown) [SL-butyl ester]: the MIC in series [5] (setting [11]) is 100 µM (≈ 67.9 µg/mL); in series [5] (setting [12]) it was 100 µM (≈ 67.9 µg/mL); in series [1] (setting [7]), 12 µM (≈ 8.15 µg/mL); in series [1] (setting [13]), 12 µM (≈ 8.15 µg/mL); in series [2] (setting [8]), over 200 µM; in series [3] (setting [9]), 12 µM (≈ 8.15 µg/mL). In addition, the MIC in series [3] (setting [12]), in series [4] (setting [10]) and in series [4] (setting [12]) was 12 µM (≈ 8.15 µg/mL) throughout. Besides, the “concentration up to which low to no cytotoxicity” value in series [6] (setting [14]) lay within 100 to 200 µM.
For the molecule `CCOC(=O)CCCCCCC/C=C\CCCCCCC(C)OC1OC(CO)C(O)C(O)C1OC1OC(CO)C(O)C(O)C1O` (stereo not shown) [SL-ethyl ester], the MIC in series [5] (setting [11]) is 200 µM (≈ 130 µg/mL); in series [1] (setting [7]) it was 50 µM (≈ 32.5 µg/mL); in series [2] (setting [8]) it was over 200 µM; in series [3] (setting [9]) it was 50 µM (≈ 32.5 µg/mL); in series [4] (setting [10]), 50 µM (≈ 32.5 µg/mL). The “concentration up to which low to no cytotoxicity” value in series [6] (setting [14]) lay in the range of 100 to 200 µM.
With `CCCCCCOC(=O)CCCCCCC/C=C\CCCCCCC(C)OC1OC(CO)C(O)C(O)C1OC1OC(CO)C(O)C(O)C1O` (stereo not shown) [SL-hexyl ester], the MIC in series [5] (setting [11]), in series [5] (setting [12]), in series [1] (setting [7]), in series [1] (setting [13]), in series [2] (setting [8]) and in series [3] (setting [9]) was over 200 µM each time. The MIC in series [3] (setting [12]), in series [4] (setting [10]) and in series [4] (setting [12]) was over 200 µM throughout.
Consider `COC(=O)CCCCCCC/C=C\CCCCCCC(C)OC1OC(CO)C(O)C(O)C1OC1OC(CO)C(O)C(O)C1O` (stereo not shown) [SL-methyl ester], for which the MIC was 200 µM (≈ 127 µg/mL) in series [5] (Staphylococcus aureus, ATCC33807, 16 h); 200 µM (≈ 127 µg/mL) in series [5] (setting [12]); 100 µM (≈ 63.7 µg/mL) in series [1] (Listeria innocua, ATCC33090, 30 h); 100 µM (≈ 63.7 µg/mL) in series [1] (setting [13]); over 200 µM in series [2] (Escherichia coli, ATCC53323, 16 h); 50 µM (≈ 31.8 µg/mL) in series [3] (Bacillus subtilis, ATCC21332, 16 h). Besides, the MIC in series [3] (setting [12]) is 50 µM (≈ 31.8 µg/mL); in series [4] (Bacillus cereus, ATCC4342, 16 h), 50 µM (≈ 31.8 µg/mL); in series [4] (setting [12]) it was 50 µM (≈ 31.8 µg/mL). For the same molecule, the cell reduction result in series [6] (400 µM, 16 h incubation, procedure of ref 17) was “no significant cell reduction”. For the same molecule, the cytotoxicity ranking result in series [6] is given as “lowest toxicity”.
Consider `CCCCCOC(=O)CCCCCCC/C=C\CCCCCCC(C)OC1OC(CO)C(O)C(O)C1OC1OC(CO)C(O)C(O)C1O` (stereo not shown) [SL-pentyl ester], for which the MIC in series [5] (setting [11]) is over 200 µM; in series [1] (setting [7]) it was 12 µM (≈ 8.31 µg/mL); in series [2] (setting [8]) it was over 200 µM; in series [3] (setting [9]), over 200 µM; in series [4] (setting [10]), 12 µM (≈ 8.31 µg/mL).
As to `CCCOC(=O)CCCCCCC/C=C\CCCCCCC(C)OC1OC(CO)C(O)C(O)C1OC1OC(CO)C(O)C(O)C1O` (stereo not shown) [SL-propyl ester], the MIC was 100 µM (≈ 66.5 µg/mL) in series [5] (setting [11]); 25 µM (≈ 16.6 µg/mL) in series [1] (setting [7]); over 200 µM in series [2] (setting [8]); 25 µM (≈ 16.6 µg/mL) in series [3] (setting [9]); 25 µM (≈ 16.6 µg/mL) in series [4] (setting [10]). Moreover, the “concentration up to which low to no cytotoxicity” value in series [6] (setting [14]) fell in the range of 100 to 200 µM.
Regarding `[H]/N=C(/N)N[C@H]1[C@H](O)[C@@H](O)[C@H](O[C@@H]2O[C@@H](C)[C@](O)(C=O)[C@H]2O[C@@H]2O[C@@H](CO)[C@H](O)[C@@H](O)[C@@H]2NC)[C@@H](N/C(N)=N\[H])[C@@H]1O` [Streptomycin, reference compound], the MIC in series [5] (setting [11]) amounted to 3 µM (≈ 1.74 µg/mL); in series [1] (setting [7]), 24 µM (≈ 14 µg/mL); in series [2] (setting [8]) it was 12 µM (≈ 6.98 µg/mL); in series [3] (setting [9]) it was 12 µM (≈ 6.98 µg/mL); in series [4] (setting [10]), 12 µM (≈ 6.98 µg/mL).
